US10544117B2, “5-hydroxytryptamine receptor 7 activity modulators and their method of use” (Temple University—Of the Commonwealth System of Higher …, priority 2014, dated 2020)

Molecular target: Serotonin 5HT7 receptors (Homo sapiens (Human), UniProt P34969)
Experiment: Radiolabel Binding Studies for Serotonin 5HT7 receptors
Conditions: for IC50: membranes of cells expressing recombinant 5HT7 receptors; for inhibition at 10 µM: read-out: 5-HT7 % inhib @ 10 uM
Description: Radiolabel Binding Studies for Serotonin 5HT7 receptors, method 1:
Eleven dilutions (5× assay concentration) of the compound of the disclosure and chlorpromazine are prepared in the Assay Buffer by serial dilution to yield final corresponding assay concentrations ranging from 10 pM to 10 μM.
(§1) A stock concentration of 5 nM [^3H]LSD (lysergic acid diethyl amide) is prepared in 50 mM Tris-HCl, 10 mM MgCl2, 1 mM EDTA, pH 7.4 (Assay Buffer). Aliquots (50 μl) of radioligand are dispensed into the wells of a 96-well plate containing 100 μl of Assay Buffer. Duplicate 50-μl aliquots of the compound of the disclosure test and chlorpromazine positive control reference compound serial dilutions are added.
Membrane fractions of cells expressing recombinant 5HT7 receptors (50 μL) are dispensed into each well. The membranes are prepared from stably transfected cell lines expressing 5HT7 receptors cultured on 10-cm plates by harvesting PBS-rinsed monolayers, resuspending and lysing in chilled, hypotonic 50 mM Tris-HCl, pH 7.4, centrifuging at 20,000×g, decanting the supernatant and storing at −80° C.; the membrane preparations are resuspended in 3 ml of chilled Assay Buffer and homogenized by several passages through a 26 gauge needle before using in the assay.
The 250-μl reactions are incubated at room temperature for 1.5 hours, then harvested by rapid filtration onto 0.3% polyethyleneimine-treated, 96-well filter mats using a 96-well Filtermate harvester. Four rapid 500-μl washes are performed with chilled Assay Buffer to reduce non-specific binding. The filter mats are dried, then scintillant is added to the filters and the radioactivity retained on the filters is counted in a Microbeta scintillation counter.
Raw data (dpm) representing total radioligand binding (i.e., specific+non-specific binding) are plotted as a function of the logarithm of the molar concentration of the competitor (i.e., test or reference compound).
Radiolabel Binding Studies for Serotonin 5-HT7 receptors, method 2:
as §1, with “[^3H]-5-Hydroxytryptamine ([^3H]-5HT)” for “[^3H]LSD (lysergic acid diethyl amide)”

| SMILES | IC50 [nM] | inhibition at 10 µM [%] | 5-HT7 % inhib @ 10 uM (single concentration of 10 uM, percent inhibition of radioligand binding) [%] |
| --- | --- | --- | --- |
| O=C1OC(CCN2CCN(c3ccc(Cl)cn3)CC2)CC12CCCCC2 (centres unmarked) [Entry 160145] | 33 | – | 96.7 |
| O=C1OC(CCN2CCN(c3ccc4[nH]ccc4c3)CC2)CC12CCCC2 (centres unmarked) [Entry 160147] | – | 9 | – |
| Nc1cc(N2CCN(CCC3CC4(CCCCC4)C(=O)O3)CC2)ccc1[N+](=O)[O-] (centres unmarked) [Entry 160149] | 500 | 84.7 | – |
| O=C1OC(CCN2CCN(c3ccc4[nH]c(=O)[nH]c4c3)CC2)CC12CCCCC2 (centres unmarked) [Entry 160150] | 1230 | 76.9 | – |
| O=C1OC(CCN2CCN(c3ccc4[nH]c(=O)[nH]c4c3)CC2)CC12CCCC2 (centres unmarked) [Entry 160151] | – | 35.9 | – |
| O=C1OC(CCN2CCN(c3ccc4[nH]c(=O)[nH]c4c3)CC2)CC12CCC2 (centres unmarked) [Entry 160152] | 2250 | 59.5 | – |
| O=C1OC(CCN2CCN(c3ccnc(Cl)c3)CC2)CC12CCCCC2 (centres unmarked) [Entry 160153] | 4360 | 58.2 | – |
| CS(=O)(=O)Nc1ccc(N2CCN(CCC3CC4(CCCC4)C(=O)O3)CC2)cc1 (centres unmarked) [Entry 230008] | – | 33.2 | – |
| O=C1OC(CCN2CCN(c3cc(Cl)ccn3)CC2)CC12CCCC2 (centres unmarked) [Entry 230010] | – | 33.5 | – |
| O=C1OC(CCN2CCN(c3ccnc(Cl)c3)CC2)CC12CCCC2 (centres unmarked) [Entry 230011] | – | 40.3 | – |
| N#Cc1ccnc(N2CCN(CCC3CC4(CCCC4)C(=O)O3)CC2)c1 (centres unmarked) [Entry 230012] | 436 | 76.6 | – |
| COc1ccccc1N1CCN(CCC2CC3(CCC3)C(=O)O2)CC1 (centres unmarked) [Entry 230015] | 319 | 83.4 | – |
| O=C1OC(CCN2CCN(c3ccccc3O)CC2)CC12CCC2 (centres unmarked) [Entry 230016] | 299 | 84.7 | – |
| COc1ccc(N2CCN(CC[C@@H]3CC(C)(C)C(=O)O3)CC2)cc1 [Entry 230039] | 10000 | 42.6 | – |
| COc1ccc(N2CCN(CC[C@H]3CC(C)(C)C(=O)O3)CC2)cc1 [Entry 230046] | 10000 | 53.5 | – |
| CCC1(CC)CC(CCCN2CCN(c3ccc(C#N)cc3)CC2)OC1=O (centres unmarked) [Entry 230058] | 965 | 78.6 | – |
| CCC1(CC)CC(CCCN2CCN(c3ccc(O)cc3)CC2)OC1=O (centres unmarked) [Entry 230059] | 353 | 88.8 | – |
| CCC1(CC)CC(CCCN2CCN(c3ccc(OC)cc3)CC2)OC1=O (centres unmarked) [Entry 230060] | 10000 | 43.6 | – |
| CCC1(CC)CC(CCN2CCN(c3ccc4nc(C(F)(F)F)[nH]c4c3)CC2)OC1=O (centres unmarked) [Entry 230068] | 10000 | 44 | – |
| CCC1(CC)CC(CCN2CCN(c3ccc4nc(C)[nH]c4c3)CC2)OC1=O (centres unmarked) [Entry 230069] | 10000 | – | – |
| CCC1(CC)C[C@H](CCN2CCN(c3ccncc3)CC2)OC1=O [Entry 230083] | 5820 | 51 | – |

More lines, in order of falling IC50, values ahead:

| IC50 [nM] | inhibition at 10 µM [%] | SMILES | 5-HT7 % inhib @ 10 uM (single concentration of 10 uM, percent inhibition of radioligand binding) [%] |
| --- | --- | --- | --- |
| 168 | 94.9 | CCC1(CC)CC(CCCN2CCN(c3ccc(C)cc3)CC2)OC1=O (centres unmarked) [Entry 230061] | – |
| 146 | 90.9 | COc1ccccc1N1CCN(CCC2CC3(CCCC3)C(=O)O2)CC1 (centres unmarked) [Entry 230013] | – |
| 93 | 98.9 | CCC1(CC)CC(CCCN2CCN(c3ccccn3)CC2)OC1=O (centres unmarked) [Entry 230063] | – |
| 88 | 96.5 | O=C1OC(CCN2CCN(c3ccc4[nH]ccc4c3)CC2)CC12CCC2 (centres unmarked) [Entry 160148] | – |
| 78 | 91.5 | O=C1OC(CCN2CCN(c3ccccc3O)CC2)CC12CCCC2 (centres unmarked) [Entry 230014] | – |
| 65.3 | 97.9 | O=C1OC(CCN2CCN(c3ccc4[nH]ccc4c3)CC2)CC12CCCCC2 (centres unmarked) [Entry 160146] | – |
| 55 | 98.5 | CCC1(CC)CC(CCCN2CCN(c3ccccc3)CC2)OC1=O (centres unmarked) [Entry 230057] | – |
| 12 | 98.6 | CCC1(CC)CC(CCCN2CCN(c3ccccc3C(C)C)CC2)OC1=O (centres unmarked) [Entry 230062] | – |
| 9.9 | 99.3 | CCC1(CC)CC(CCN2CCc3ccc(F)cc3C2)OC1=O (centres unmarked) [Entry 230071] | – |
| 7.5 | 100 | CCC1(CC)CC(CCN2CCc3ccc(Cl)cc3C2)OC1=O (centres unmarked) [Entry 230070] | – |
